The subject of assay [1] is S100P i-motif (DNA, i motif) TCCCAACCCCACTGTCCCACCCT
Description: CD melting. Conditions: K+ 100 mM, Li+ 10 mM; 10 mM lithium cacodylate pH 5.5; 10 μM DNA; 50 μM compound (5 eq.); destabilising.

Assay [2] deals with DAP i-motif (DNA, i motif) CCCCCGCCCCCGCCCCCGCCCCCGCCCCCG
The assay is described as follows: CD melting. Conditions: K+ 100 mM, Li+ 10 mM; 10 mM lithium cacodylate pH 5.5; 10 μM DNA; 50 μM compound (5 eq.); destabilising.

In assay [3] the test system is hTelo i-motif (DNA, i motif) TAACCCTAACCCTAACCCTAACCC
Description: CD melting. Conditions: K+ 100 mM, Li+ 10 mM; 10 mM lithium cacodylate pH 5.5; 10 μM DNA; 50 μM compound (5 eq.); destabilising.

In assay [4] the test system is ILPR i-motif (DNA, i motif) TGTCCCCACACCCCTGTCCCCACACCCCTGT
The assay is described as follows: CD melting. Conditions: K+ 100 mM, Li+ 10 mM; 10 mM lithium cacodylate pH 5.5; 10 μM DNA; 50 μM compound (5 eq.); destabilising.

For assay [5], the system named is S100P G-quadruplex (DNA, G4) AGGGTGGGACAGTGGGGTTGGGA
Description: UV-vis titration of ligand with DNA. Conditions: K+ 100 mM, Li+ 10 mM; 10 mM lithium cacodylate; DNA at pH 7, ligand stock buffer pH 5.5; analysis method 1 (method 2: 1.5 ± 0.2).

For assay [6], the system named is S100P i-motif (DNA, i motif) TCCCAACCCCACTGTCCCACCCT
The assay is described as follows: UV-vis titration of ligand with DNA. Conditions: K+ 100 mM, Li+ 10 mM; 10 mM lithium cacodylate pH 5.5; 5 μM ligand; analysis method 1 (method 2: 10.8 ± 2.9).

The test system is the same in assay [7]. Description: CD titration, Hill fit of ellipticity at 288 nm. Conditions: K+ 100 mM, Li+ 10 mM; 10 mM lithium cacodylate pH 5.5; 10 μM DNA; i-motif unfolding; Hill n 2.3 ± 0.2.

With `O=C1c2cc(-c3ccc(CN4CCCC4)cc3)c3c4c(cc(NCCN5CCCC5)c(c24)C(=O)N1CCCN1CCOCC1)C(=O)N(CCCN1CCOCC1)C3=O`, the ΔTm in assay [1] is −20.7 ± 1.1 °C; in assay [2], -21.6 ± 1.1 °C; in assay [3] it was -16.6 ± 0.7 °C; in assay [4], -18.8 ± 0.4 °C. Also, the Kd is 2.0 ± 0.3 µM in assay [5] and 11.7 ± 2.9 µM in assay [6]. Besides, the “[D]50%” value in assay [7] stood at 31 ± 4 µM.

Usually ΔTm stands for the shift of the melting midpoint relative to a reference. Broadly, the Kd is a measure of binding affinity in units of concentration.

For the origin of these results see PMC10732280 (2023).
